The source of these data is article PMC8692993, “PPARα and PPARγ activation is associated with pleural mesothelioma invasion but therapeutic inhibition is ineffective” (iScience, 2021).

In test [1] the target is T1, PPARα (Homo sapiens, UniProt Q07869).
T1 sequence (Q07869 239-466 limits assumed): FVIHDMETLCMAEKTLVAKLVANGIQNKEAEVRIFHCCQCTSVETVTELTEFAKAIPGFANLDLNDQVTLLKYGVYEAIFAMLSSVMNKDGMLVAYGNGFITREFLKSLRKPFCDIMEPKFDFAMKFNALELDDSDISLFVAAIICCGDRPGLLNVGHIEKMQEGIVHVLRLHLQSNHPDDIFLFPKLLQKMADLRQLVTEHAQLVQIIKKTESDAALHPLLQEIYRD
On the set-up: expressed in transfected cells; host or cells: HG5LN (HeLa-derived, GAL4RE-luciferase); method as in Seimandi et al., 2005. The note with it: ref Seimandi et al., 2005, cited from earlier work.

Test [2] has as its target T1, PPARα. The experiment in a line: LanthaScreen TR-FRET binding assay, PPARα. The note with it: 2 h incubation, mean of 3 replicates ± SEM. How it is done: (§1) The LanthaScreen™ TR-FRET binding assay was performed following the manufacturer's guidelines (PV4894, Invitrogen) as follows, 20 mM stock solution of the ligand or control in DMSO were serially diluted using 100% DMSO to produce a range of concentrations from 100 μM to 1 pM. The test compound solutions were mixed with the reaction buffer in a 1 (ligand) in 10 (reaction buffer) dilution for a final 2X ligand concentration. This was mixed with the reaction components (glutathione S-transferase (GST)-PPPARγLBD (0.5 nM)/, terbium (Tb)-labelled anti-GST antibody (5 nM) and Fluormone pan-PPAR green (5 nM for PPARγ; 20 nM for PPARα) at room temperature in a ratio of 8 μLl 2X ligand solution: 4 μLl of 4XFluormone: and 4 μLl 4X GST-PPPARγLBD/terbium (Tb)-labelled anti-GST antibody to produce a final reaction mixture volume of 16 μL. The concentration of DMSO in the final reaction mixture was 5%. The reaction mixture was kept at room temperature for 2 h prior to recording the TR-FRET emission spectra using a CLARIOstar Plus microplate reader (BMG Labtech). […] Results are expressed as the ratio of fluorescence intensity at 520 nm (Fluormone emission) and 490 nm (Tb emission). […] For each compound three serial dilutions were prepared and measured separately. The IC50 and SEM values were determined using a sigmoidal dose-response equation with varying slope using GraphPad Prism.
On the technique in general: Time-resolved FRET reads energy transfer from a long-lived donor to a nearby acceptor.

The target in test [3] is T2, PPARγ (Homo sapiens, UniProt P37231).
T2 sequence (P37231 238-503 limits assumed): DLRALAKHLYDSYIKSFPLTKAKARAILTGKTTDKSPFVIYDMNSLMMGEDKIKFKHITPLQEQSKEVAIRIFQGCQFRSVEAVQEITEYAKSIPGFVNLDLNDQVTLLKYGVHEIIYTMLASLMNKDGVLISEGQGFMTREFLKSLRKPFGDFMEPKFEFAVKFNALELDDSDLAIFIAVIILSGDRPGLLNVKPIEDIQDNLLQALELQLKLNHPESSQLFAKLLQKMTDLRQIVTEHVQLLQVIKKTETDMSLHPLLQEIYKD
The experiment in a line: LanthaScreen TR-FRET binding assay, PPARγ. The note with it: 2 h incubation, mean of 3 replicates ± SEM. How it is done: as §1

For test [4], the target named is T1, PPARα. More on the design: method as in Leesnitzer et al., 2002. The note with it: displacement of [3H]GW2331, incubation time 1 h, ref Leesnitzer et al., 2002, read-out: Lit. Binding assay, IC50; cited from earlier work.
Test [5] deals with T1, PPARα. The experiment in a line: HG5LN reporter cell assay, PPARα-mediated transcription. It counts as cell-based. On the set-up: expressed in transfected cells; host or cells: HG5LN (HeLa-derived, GAL4RE-luciferase). From the text:
(§2) Nuclear receptors, including PPARα and γ, are ligand-inducible transcription factors that form heterodimers with retinoid X receptors and bind to specific DNA sites located in the enhancer/promoter region of target genes, releasing co-repressors and/or recruiting co-activators ([Wang, 2010]). We therefore assessed the functional consequences of the ligands on PPARα and γ-mediated transcriptional activation in reporter cell lines. These cell lines were generated as previously reported by a two-step transfection procedure ([Seimandi et al., 2005]). First, a stable cell line, HG5LN, expressing the reporter gene (GAL4RE-luciferase) was developed from the HeLa cell line. These cells were then transfected with a plasmid expressing the C-terminal ligand-binding domain of PPARα or γ fused to GAL4 DNA-binding domain. The parental HG5LN cells were used as a control to test non-specific modulation of luciferase expression by the small molecules investigated (Figure S4A). The HG5LN PPAR reporter cells therefore allow comparison of the functional activity at, and selectivity of different ligands for, PPARα and γ. […] As expected ([Abu Aboud et al., 2015]), GW6471 potently antagonized PPARα (Figure 4E and Table 1).
(§3) A transfected […] cell line HG5LN was used ([Balaguer et al., 2001]). These cells were cultured in Dubecco's modified Eagle's medium (DMEM-F12 Thermo Fisher Scientific) with phenol red and supplemented with 5% foetal calf serum, incubated at 37°C in a 5% CO2/95% air-humidified atmosphere. Luciferase assays were performed in DMEM-F12 (Thermo Fisher Scientific) without phenol red and supplemented with 5% dextran-coated charcoal-stripped FCS (test culture medium), puromycin (Thermo Fisher Scientific) 0.5 μg/mL and geneticin (Thermo Fisher Scientific) 1 mg/mL. Cells were seeded at a density of 5 x 10^4 cells/well and incubated for 8 h at 37°C in a 96-well plate white opaque tissue culture plates (Becton-Dickinson). Tested compounds were added in serial dilutions and incubated for 16 h at 37°C. After incubation, the medium containing the effectors was carefully removed and replaced by culture medium containing 3 x 10^−4 mol/L luciferin (Sigma Chemicals). After 5 min incubation at room temperature, the 96-well plate was then read with a Microbeta Wallac luminometer and the luminescence was measured in the living cells for 2 s. All experiments were performed in quadruplicate.

For test [6], the target named is T2, PPARγ. On the set-up: method as in Leesnitzer et al., 2002. The note with it: displacement of [3H]rosiglitazone, incubation time 1 h, ref Leesnitzer et al., 2002, read-out: Lit. Binding assay, IC50; cited from earlier work. On the technique in general: Loss of bound radioactivity is the signal in a displacement assay; it reports binding, not function.
Test [7] has as its target T2, PPARγ. On the set-up: expressed in transfected cells; host or cells: HG5LN (HeLa-derived, GAL4RE-luciferase); method as in Seimandi et al., 2005. The note with it: inhibition of agonism by 20 nM rosiglitazone (BRL49653), ref Seimandi et al., 2005, read-out: Functionality, Lit. IC50; cited from earlier work.
For test [8], the target named is T2, PPARγ. The experiment in a line: HG5LN reporter cell assay, PPARγ-mediated transcription. It counts as cell-based. On the set-up: expressed in transfected cells; host or cells: HG5LN (HeLa-derived, GAL4RE-luciferase).
Description: as §2, §3

For test [9], the system named is SC model of melanoma or a metastatic model of lung cancer. On the set-up: method as in Zou et al., 2019. The note with it: ref Zou et al., 2019; cited from earlier work.
In test [10] the test system is brain metastases from melanoma and breast cancer. More on the design: method as in Zou et al., 2019. The note with it: murine models; ref Zou et al., 2019; cited from earlier work.
The next test relates to AB1. The experiment in a line: MTT cell metabolic activity assay, AB1. It counts as cell-based, mouse. The note with it: AB1, arachidonic acid 5 and 10 μM, p <0.05. Here is the method: (§4) Cells were harvested and seeded in 96-flat well plates (Corning) at a density of 5 x 10^4 cells/mL overnight. Media was removed and 100 μL media with GW6471 or GW9662 at indicated concentrations was added to each well. Cell viability and toxicity were measured at 48 h. Cells were incubated with 50 μL of a 2 mg/mL solution of (3-(4,5-dimethyl-thiazole-2-yl)-2,5-[…] tetrazolium (MTT, Sigma-Aldrich) in PBS for 4 h and then exposed to 100 μL dimethyl sulfoxide (DMSO; Sigma-Aldrich). Cell viability was measured by absorption at 570 nm in a microplate spectrophotometer (Spectromax 250 plate reader). Results are shown as relative cell viability.

The next test has as its system VGE62. The experiment in a line: MTT cell metabolic activity assay, VGE62. It counts as cell-based, human. The note with it: VGE62, arachidonic acid 5 and 10 μM, p <0.05. How it is done:
as §4

A further test has as its system AE17. The test can be described thus: MTT cell metabolic activity assay, AE17. The note with it: AE17, arachidonic acid 5 and 10 μM, p <0.05. It counts as cell-based, mouse. Here is the method: as §4
In test [11] the test system is HAP1, HAP1 PPARA KO, and HAP1 PPARG KO cell lines. The experiment in a line: MTT cell metabolic activity assay, HAP1 lines. It counts as cell-based, human. The note with it: arachidonic acid 5 and 10 μM, p <0.0001. How it is done: as §4

Where two headings read alike, the source gives them in different places.

The term EC50 denotes the concentration that produces a half-maximal response. One may read the IC50 as the point on the concentration scale where inhibition reaches its midpoint. As to `O=C(Nc1ccccc1)c1cc([N+](=O)[O-])ccc1Cl` [GW9662], on PPARα [1] (PPARα partial agonism, read-out: Functionality, Lit. EC50), the EC50 was 0.026 ± 0.009 µM. For the same compound, the IC50 was 0.188 ± 0.043 µM at PPARα [1] (PPARα, inhibition of agonism by 30 nM GW7647, read-out: Functionality, Lit. IC50); 0.214 ± 0.0646 µM at PPARα [2]; 0.0124 ± 0.0036 µM at PPARγ [3]; 0.039 ± 0.004 µM at PPARα [4]; 0.131 ± 0.031 µM on PPARα [5] (inhibition of agonism by 10 nM GW7647, 16 h incubation, mean of 3 experiments ± SEM); 0.0054 ± 0.0006 µM at PPARγ [6]. Further, the IC50 is 0.0038 ± 0.0013 µM at PPARγ [7] and 0.004 ± 0.0026 µM against PPARγ [8] (inhibition of agonism by 30 nM rosiglitazone, 16 h incubation, mean of 3 experiments ± SEM). In addition, the “Maximal activity reached (partial agonism)” value at PPARα [1] (PPARα) was “j 33% of maximal activity ([Seimandi et al., 2005])”. For the same compound, the figures for the “Functionality, Type” value on PPARα [5] and at PPARγ [8] were “partial agonist” and “antagonist”, respectively.

Take `O=C(Nc1ccncc1)c1cc([N+](=O)[O-])ccc1Cl` [T0070907]: in test [9], the Tumor growth result is reported as “did not find an inhibitory effect on tumor growth”. The Brain metastases result in [10] was “significant decrease of brain metastases from melanoma and breast cancer”.

Regarding `CCCCC/C=C\C/C=C\C/C=C\C/C=C\CCCC(=O)O` [arachidonic acid], the “Proliferation (MTT)” value with AB1, in the test with VGE62 and in the test with AE17 was “increased proliferation in a concentration-dependent manner” in each case. Besides, the “Proliferation (MTT) in HAP1 parental versus PPARA/PPARG KO cells” value in [11] is given as “significant increase in proliferation, but only in the HAP1 parental cell line”.
